This note sets out measurements from patent US8420060B2, “Pharmaceutical aerosol formulations of formoterol and beclometasone dipropionate” (Chiesi Farmaceutici S.p.A., priority 2009, dated 2013).

Counter-ions that a name gives are not always drawn. Like-named read-outs stand apart in the source and are kept apart here.

The nature of data set [1]: Aerosol performances by Andersen Cascade Impactor (Eur. Pharm. 2.09.18), HPLC quantification. It is filed as physicochemical. To be noted: Example 5 formulation, mean n = 2; for Delivered Dose: 63 μl valve, nominal 6 μg formoterol / 50 μg BDP per actuation; for Fine particle dose: ACI S3 to filter, particles ≦4.7 microns; for Fine particle fraction: ratio respirable dose / delivered dose. As to the method:
This formulation was filled into an aluminum canister under pressure and fitted with a metering valve having a 63 μl metering chamber.
Quantification of beclometasone dipropionate (BDP) and formoterol fumarate dehydrate (FF) was performed using a HPLC method. The following parameters were determined: • i) delivered dose is calculated from the cumulative deposition in the ACI, divided by the number of actuations per experiment; • ii) respirable dose (fine particle dose=FPD) is obtained from the deposition from Stages 3 (S3) to filter (AF) of the ACI, corresponding to particles of diameter ≦4.7 microns, divided by the number of actuations per experiment; • iii) respirable fraction (fine particle fraction=FPF) which is the percent ratio between the respirable dose and the delivered dose; • iv) mass median aerodynamic diameter (MMAD) which is the diameter around which the mass aerodynamic diameters of the emitted particles are distributed equally; and • v) Geometric standard deviation (GSD) which is a measure of the spread of the aerodynamic particle size distribution.

Data set [2] in a line: Storage (chemical) stability of HFA134a/ethanol pMDI solution. It is filed as physicochemical. To be noted: BDP in ethanol/HFA134a mixture, room temperature. As to the method:
However, although it has the apparent pH adjusted according to the teaching of WO 01/89480 for improving its chemical stability, due to the limited stability of formoterol in solution, said formulation can be stored for no longer than 15 months at a refrigerator temperature (from +2 to +8° C.) and for no longer than 5 months at room temperature.

In the case of `COc1ccc(C[C@@H](C)NC[C@H](O)c2ccc(O)c(NC=O)c2)cc1` (racemic) [formoterol fumarate dihydrate, 2′-hydroxy-5′-[(RS)-1-hydroxy-2{[(RS)-p-methoxy-α-methylphenethyl]amino}ethyl]formanilide], for the setting “HFA227:ethanol 92.5:7.5 (w/w)”, the “change of formoterol fumarate dihydrate solubility in the presence of BDP” value is listed as “does not change”. For the setting “HFA227:ethanol 97.3:2.7 (w/w)”, the “change of formoterol fumarate dihydrate solubility in the presence of BDP” value is given as “does not change”. Besides, in data set [1], the “Delivered Dose” value is 3.9 µg, the Fine particle dose was 2.3 µg, the GSD is on record as 1.5 and the MMAD is listed as 2.0 μm. Also, the Fine particle fraction in data set [1] is recorded as 59.3%.

As for `CCC(=O)OCC(=O)[C@@]1(OC(=O)CC)[C@@H](C)C[C@H]2[C@@H]3CCC4=CC(=O)C=C[C@]4(C)[C@@]3(Cl)[C@@H](O)C[C@@]21C` [BDP, (8S,9R,10S,11S,13S,14S,16S,17R)-9-chloro-11-hydroxy-10,13,16-trimethyl-3-oxo-17-[2-(propionyloxy)acetyl]-6,7,8,9,10,11,12,13,14,15,16,17-dodecahydro-3H-cyclopenta[a]phenanthren-17-yl propionate], the “storage time without significant degradation” value in data set [2] is on record as “at least 35 months”. Further, in data set [1], the “Delivered Dose” value turned out to be 46.0 µg, the Fine particle dose was determined as 30.0 µg, the GSD stood at 2.2 and the MMAD is 1.1 μm. Further, in data set [1], the Fine particle fraction amounted to 64.0%.
